In PMC10780275, “Evaluation of Anti-Trypanosoma cruzi Activity of Chemical Constituents from Baccharis sphenophylla Isolated Using High-Performance Countercurrent Chromatography” (Molecules, 2023):
Where two headings read alike, the source gives them in different places.

Legend:
T. cruzi trypomastigote = test: Activity against trypomastigote forms of T. cruzi (resazurin viability, 24 h); assay type: cell-based, Trypanosoma cruzi (Y strain); conditions: trypomastigotes, serial dilutions 1.7 to 150 μM; for EC50: Trypanosoma cruzi, read-out: T. cruzi Trypomastigote EC50 (μM) ± SD
Procedure: (§1) NCTC cells (clone 929, ATCC) were cultured in RPMI-1640 supplemented with 10% of fetal bovine serum (FBS), at 37 °C within a 5% CO2-humidified incubator. To collect peritoneal macrophages, the abdominal cavity of female BALB/c mice was rinsed with an RPMI-1640 medium, containing 10% FBS. These macrophages were then cultured overnight at 37 °C in a 5% CO2-humidified incubator. Trypanosoma cruzi trypomastigotes (Y strain) were maintained within Rhesus monkey kidney epithelial cells (LLC-MK2) cells using an RPMI-1640 medium supplemented with 2% FBS, and the incubation took place at 37 °C with 5% CO2 and humidity.
Tests of the activity from compounds 1–8 against the trypomastigote form of T. cruzi was performed, according to procedures previously reported. Trypomastigotes, in a concentration of 1 × 10^6 parasites/well, were seeded in 96-well plates and incubated with the tested compounds, alongside the standard drug benznidazole, in serial dilutions ranging from 1.7 to 150 μM, for 24 h at 37 °C in a 5% CO2 incubator. Subsequently, 20 μL of 10% resazurin was added, in order to determine cell viability. Absorbance was read in a plate spectrofluorometer Filter Max F5 Multi-Mode Microplate Reader at 570 nm. Untreated cells were used as negative controls, and cells treated with benznidazole were used as positive controls. The 50% effective concentration (EC50) against trypomastigote forms was determined by the regression of a sigmoid dose–response curve expressed in μM.
(§2) The CC50 and EC50 values were derived through the analysis of sigmoidal dose–response curves using GraphPad Prism 6.0 software. The samples were subjected to duplicate testing, and the experiments were replicated a minimum of two times.

T. cruzi amastigote = test: Activity against intracellular amastigotes of T. cruzi within infected macrophages (Giemsa, light microscope, 48 h); assay type: cell-based, Trypanosoma cruzi (Y strain); conditions: for EC50: Trypanosoma cruzi, Peritoneal macrophage, in Mus musculus, read-out: T. cruzi Amastigote EC50 (μM) ± SD
Excerpt: The experimental animals were sourced from the animal breeding facility located at Instituto Adolfo Lutz in São Paulo State, Brazil. Peritoneal macrophages were extracted from female BALB/c mice for intracellular experiments, while male BALB/c mice were utilized to sustain T. cruzi. These animals were provided unlimited access to both water and food, residing in sterilized enclosures within a meticulously regulated environment. All procedures were previously approved by the Animal Ethics Commission of Instituto Adolfo Lutz.
as §1
The EC50 values for compounds 1–8 against intracellular amastigotes of T. cruzi were determined within infected macrophages. Macrophages, obtained as detailed in item 4.9, were seeded onto a 16-well chamber slide (NUNC plate, Thermo Fisher, Waltham, MA, USA) at a density of 1 × 10^5 cells per well. Subsequently, these cell cultures were incubated overnight at 37 °C in a humidified incubator containing 5% CO2. Trypomastigotes, previously derived from infected LLC-MK2 cells, underwent washing in an RPMI-1640 medium, were quantified, and were then employed to infect the macrophages at a concentration of 1 × 10^6 trypomastigotes per well. Following a 2 h infection period, any non-internalized trypomastigotes were eliminated by rinsing with an RPMI medium. The compounds were subsequently exposed to the infected macrophages for 48 h at 37 °C within a 5% CO2 environment. A range of serial dilutions (ranging from 30.00 to 1.87 μM) were used for the incubation of compounds, and benznidazole was utilized as the standard drug. At the final stage of the experiment, the chamber slides were fixed using MeOH and stained with Giemsa before being assessed under a light microscope (Thermo EVOS M5000).
as §2

[1] = Cytotoxicity against mammalian NCTC cells (MTT assay, 48 h); assay type: cell-based; conditions: mouse, NCTC murine fibroblasts, highest tested concentration 200 μM, read-out: NCTC Mammalian Cell CC50 (μM) ± SD
Procedure: as §1
The determination of CC50 (50% cytotoxic concentration) values for compounds 1–8 was conducted using NCTC cells (L929 clone). These cells were seeded at a density of 6 × 10^4 cells per well in 96-well plates (Thermo Fisher). The cells were then exposed to a series of compound dilutions, ranging from 200 to 1.56 µM, and incubated for 48 h at 37 °C within a 5% CO2-equipped incubator. The viability of the cells and CC50 values were determined using 3-(4,5-dimethylthiazol-2-yl)-2,5-diphenyltetrazolium bromide (MTT) assay. Subsequently, the absorbance was measured at 570 nm using the FilterMax F5 instrument from Molecular Devices. The selectivity index (SI) was determined as the ratio between the CC50 against NCTC cells and the EC50 against trypomastigotes or amastigotes.
as §2

[2] = intracellular amastigotes in BALB/c peritoneal macrophages, serial dilutions 30.00 to 1.87 μM
[3] = NCTC cells (clone L929) fibroblasts

| EC50 (T. cruzi trypomastigote) [µM] | EC50 (T. cruzi amastigote; [2]) [µM] | T. cruzi Amastigote EC50 (μM) ± SD (T. cruzi amastigote; [2]) | SMILES | CC50 at 48 h [1, 3] [µM] | T. cruzi Trypomastigote EC50 (μM) ± SD (T. cruzi trypomastigote) | EC50 (T. cruzi amastigote) [µM] | CC50 at 48 h [1] [µM] |
| --- | --- | --- | --- | --- | --- | --- | --- |
| 18.7 ± 4.1 | 5.5 ± 2.2 |  | O=C(Cn1ccnc1[N+](=O)[O-])NCc1ccccc1 [Benznidazole, benznidazole, reference compound] | > 200 |  |  |  |
| 20.1 ± 1.5 |  | inactive | COC1C[C@@H](CC[C@@H]2[C@@H](C)CC=C3C(CO)(CO)CCC[C@@]32C)CO1 (relative stereo) [Compound 1, 15,16-epoxy-18,19-dihydroxy-16-methoxy-syn-labd-5-ene] | > 200 |  |  |  |
|  |  |  | COc1c(O)cc2oc(-c3ccc(O)cc3)cc(=O)c2c1O [Compound 4, Hispidulin] |  | no activity | 12.8 ± 0.3 | > 200 |
|  | 2.7 ± 0.2 |  | COc1c(O)cc2oc(-c3ccc(O)c(O)c3)cc(=O)c2c1O [Compound 5, Eupafolin] |  | no activity |  |  |
| 2.9 ± 1.5 |  | inactive | C[C@H]1CC=C2C(CO)(CO)CCC[C@]2(C)[C@@H]1CC[C@H](CCO)COC(=O)/C=C/c1ccc(O)cc1 [Compound 2, gaudichaudol C] | > 200 |  |  |  |

| SMILES | EC50 (T. cruzi trypomastigote) [µM] | EC50 (T. cruzi amastigote; [2]) [µM] | T. cruzi Amastigote EC50 (μM) ± SD (T. cruzi amastigote; [2]) | CC50 at 48 h [1, 3] [µM] | T. cruzi Trypomastigote EC50 (μM) ± SD (T. cruzi trypomastigote) | EC50 (T. cruzi amastigote) [µM] | CC50 at 48 h [1] [µM] |
| --- | --- | --- | --- | --- | --- | --- | --- |
| C=C1C[C@@]23CC[C@H]4[C@@](C)(CCC[C@@]4(C)C(=O)O)[C@@H]2CC[C@@H]1C3 [Compound 3, Ent-kaur-16-en-19-oic acid] | 10.6 ± 4.4 |  | inactive |  |  |  | > 200 |
